“And” between values parts separate entries of the source, which are not always exact repeats. Identical values can stand only once.
How the values were obtained:
Caco-2 cells = experiment: Intracellular (cellular) antioxidant activity (CAA) assay, DCFH-DA/AAPH; assay type: cell-based; conditions: apigenin 7 μg/mL final, ascorbic acid 0.01%w/v, mean ± SD; for AUC (area under the DCF fluorescence response curve over time): 1 h incubation, 600 µM AAPH; for CAA unit (%reduction): vs non-antioxidant treated control
Description: The quantitative cellular antioxidant activity (CAA) assay is a useful method employed for determining the bioavailability of food antioxidants because it can account for several additional factors, such as cellular uptake and metabolism. The CAA assay uses a fluorescent probe (DCFH-DA) to monitor the inhibition of peroxyl radical-induced oxidation inside the cell. The ester form (DCFH-DA) is nonionic and nonpolar and can be transported across the cell membrane. Inside the cell, DCFH-DA is deacetylated by endogenous cellular esterase and left in its oxidizable DCFH form. Once the free radical generator AAPH is added to the system, peroxyl radicals begin to form. The addition of antioxidants that can enter the cell can compete with and quench the radicals, preventing DCFH from being oxidized to form DCF (fluorescent). The CAA unit takes into account the relative areas under the curves of the samples compared to the control. Caco-2 cells, intestinal barrier models, are an appropriate model for assessing the antioxidant activity, especially for the phenolic compound[21] being used in this study.
The quantitative CAA of SNEDDS formulations GTP2575 and GTP3070 was evaluated in Caco-2 cells modified from the study of Kellett et al.[21]. Caco-2 cells were cultured in advanced DMEM supplemented with 10% endotoxin-free, heat-inactivated FBS, 1% L-glutamine, 1% penicillin (10,000 U/mL), and 1% streptomycin (10,000 μg/mL). Each test sample of SNEDDS was prepared by diluting with serum-free culture media to obtain an equivalent concentration of apigenin (14 µg/mL). The working solution (25 μM DCFH-DA in serum-free culture media) was prepared from a 12.5 mM DCFH-DA stock solution in MeOH. A 600 μM AAPH solution was prepared from a 60 mM AAPH stock solution in HBSS before experimental use. After Caco-2 cells reached confluence in a T-25 culture flask, the cells were washed twice with sterile PBS (pH 7.4) and dissociated from the surface using trypsin–EDTA. The cells were seeded in 96-well, black, flat-bottom tissue culture-treated dishes (Corning Costar, ME, USA). A density of 60,000 cells in 100 µL of culture media was added to each well and incubated until they reached confluency (24 h). The growth medium was removed after confluence was achieved, and the cells were then washed with PBS to remove any nonadherent and dead cells.
At the time of the experiment, 50 µL of 25 μM DCFH-DA working solution was added to each well, followed by 50 µL of a test sample. As a result, the final concentration of apigenin of 7 μg/mL in each well was obtained. As a control, 50 µL of DCFH-DA working solution and serum-free culture media (no sample included) were utilized. Once the DCFH-DA and test samples were added, the cells were placed in the incubator for 1 h at 37 °C. After 1 h, the cells were washed with PBS 3 times to ensure that any antioxidant effect observed later in the assay was due only to the compounds internalized by the cells. […] The cells were then immediately placed in a BMG CLARIOstar (BMG LABTECH, NC, USA), where real-time fluorescence was measured initially and every five minutes for 1 h (a total of 13 readings were taken). The fluorescence was measured at an excitation wavelength of 485 nm and an emission wavelength of 538 nm. The antioxidant activity of test samples was quantified by evaluating the percent reduction in fluorescence. […] The percent reduction, or the CAA unit, was calculated using Eq. (3). The samples were evaluated in triplicate and reported as the mean ± SD. […]

[1] = Solubility of apigenin in oils, surfactants and cosurfactants (excess drug, shaking water bath, HPLC); assay type: physicochemical; conditions: 48 h, mean ± SD, n = 3
Description: To formulate the SNEDDS, the selection of suitable oils, surfactants, and cosurfactants is important to enhance the solubility of actives and the loading efficiency. The components used in SNEDDS should maximize drug solubility and have good miscibility with each other to obtain a stable formulation. Therefore, the solubility of apigenin was firstly determined in the oils (Gelucire 44/14, Myritol 318, sunflower oil, and corn oil), surfactants (PEG-40 hydrogenated castor oil, Tween 20, Tween 80, Span 20, and Span 80), and cosurfactants (PEG 400 and Transcutol HP). Briefly, an excess amount of apigenin was weighed into 0.5 g of each excipient. The obtained mixtures were mixed using a vortex mixer and kept in a shaking water bath at 100 rpm and 37 ± 2 °C for 48 h. After equilibrium was achieved, the equilibrated sample was centrifuged at 8000 rpm for 20 min. The excess undissolved apigenin was discarded, and the supernatant was collected. The concentration of apigenin was analyzed by the high-performance liquid chromatography (HPLC). The experiments were performed in triplicate. The excipient in which apigenin was the most soluble was selected to form the pseudoternary phase diagram. The amount of apigenin was quantified by a validated reversed-phase HPLC (RP-HPLC) equipped with a UV/VIS detector (SHIMADZU Series 20AD, Japan). Apigenin was separated on a C18 column (Promosil C18, 4.5 × 250 mm, 5 µm) using methanol, acetonitrile, acetic acid, orthophosphoric acid, and water at a ratio of 40:20:0.05:0.05:40 by volume as the mobile phase at a flow rate of 0.6 mL/min with a detection wavelength of 352 nm. The column temperature was set to 30 °C. The standard curve of apigenin was linear in the concentration range of 0.05–40 µg/mL. Good linearity with a coefficient of determination (R^2) > 0.999 was achieved. The relative standard deviation (%RSD) of intraday and interday precision of the assay method for apigenin was below 6%, and the accuracy was within the range of 95–105%. The limit of quantification and limit of detection were 0.64 and 0.21 µg/mL, respectively.

[2] = set-up: method as in PMID 34084146; conditions: cited from earlier work
[3] = In vitro dissolution profile (apparatus type II, HPMC capsules) and release kinetics fitting; assay type: physicochemical; conditions: 37 °C, 100 rpm, 5 mg apigenin in HPMC capsule
Experimental: The apigenin-loaded SNEDDS formulations GTP2575 and GTP3070 were selected for evaluating the in vitro dissolution because both formulations offered nearly 100% transmittance, an appropriate size with a narrow size distribution, a quick self-emulsification time, and great drug loading and encapsulation efficiency. […] Therefore, formulations GTP2575 and GTP3070 were preferred for in vitro dissolution study.
Dissolution was performed by a dissolution apparatus type II (a paddle) (Vision G2 Elite 8, Hanson, CA, USA). The SNEDDS formulations GTP2575 and GTP3070 containing 5 mg of apigenin were added to HPMC capsules number 00. An equivalent 5 mg of apigenin coarse powder added to HPMC capsules using lactose monohydrate as the filler was the control. Each capsule was placed inside a sinker loaded with 900 mL of dissolution media (buffer solutions pH 1.2, 4.5, and 6.8) at 37.0 ± 0.5 °C with a rotating speed of 100 rpm. During the study, 5 mL of dissolution medium was removed at predetermined time intervals (10, 15, 20, 30, 45, 60, 90, and 120 min), and 5 mL of fresh buffer solution was replaced. The amount of apigenin dissolved in the dissolution media was determined by HPLC. The dissolution experiment was carried out in triplicate. The dissolution profile was plotted with the percent apigenin dissolved on the y-axis and time on the x-axis. The dissolution profiles of GTP2575, GTP3070, and the coarse powder in the dissolution media buffer pH 1.2, 4.5, and 6.8 were compared. The dissolution results of the SNEDDS formulations GTP2575 and GTP3070 in pH 1.2 buffer solution were fitted by determining the R^2 with various kinetic models such as zero-order (a constant release rate independent of the drug remaining), first-order (an exponential decay of the drug remaining), Higuchi (matrix systems where drug release is controlled by diffusion), Hixon–Crowell (release based on the change in the cube root of the drug remaining), and Korsmeyer–Peppas (an extension of the […] model that incorporates a release exponent). […]

| SMILES | AUC (area under the DCF fluorescence response curve over time) (Caco-2 cells; n = 3) | CAA unit (%reduction) (Caco-2 cells; n = 3) [%] | Solubility at 37 °C ([1]; in Gelucire 44/14 (oil)) | Solubility at 37 °C ([1]; in Myritol 318 (oil)) [mg/g] | Solubility at 37 °C ([1]; in PEG 400 (cosurfactant)) [mg/g] | Solubility at 37 °C ([1]; in PEG-40 hydrogenated castor oil (surfactant)) [mg/g] | Solubility at 37 °C ([1]; in Span 20 (surfactant)) [mg/g] | Solubility at 37 °C ([1]; in Span 80 (surfactant)) [mg/g] | Solubility at 37 °C ([1]; in Transcutol HP (cosurfactant)) [mg/g] | Solubility at 37 °C ([1]; in Tween 20 (surfactant)) [mg/g] | Solubility at 37 °C ([1]; in Tween 80 (surfactant)) [mg/g] | Solubility at 37 °C ([1]; in corn oil) [mg/g] | Solubility at 37 °C ([1]; in sunflower oil) [mg/g] | Biopharmaceutical classification system (BCS) class [2] | Solubility in water [2] | CAA unit (%reduction) (Caco-2 cells; n = 3, listed as Apigenin coarse powder) [%] | CAA unit (%reduction) (Caco-2 cells; n = 3, listed as apigenin coarse powder) | percent apigenin dissolved at 120 min ([3]; buffer pH 1.2, 900 mL) [%] | percent apigenin dissolved at 120 min ([3]; buffer pH 4.5, 900 mL) [%] | percent apigenin dissolved at 120 min ([3]; buffer pH 6.8, 900 mL) [%] |
| --- | --- | --- | --- | --- | --- | --- | --- | --- | --- | --- | --- | --- | --- | --- | --- | --- | --- | --- | --- | --- |
| O=C1O[C@H]([C@@H](O)CO)C(O)=C1O [ascorbic acid] | 8,959,896 ± 1,441,639 | 21.61 ± 7.41 |  |  |  |  |  |  |  |  |  |  |  |  |  |  |  |  |  |  |
| O=c1cc(-c2ccc(O)cc2)oc2cc(O)cc(O)c12 [apigenin] | 9,951,772 ± 1,061,408 |  | 7.77 ± 0.63 mg/g and 7.7686 ± 0.6332 mg/g | 0.0003 ± 0.0000 | 27.6349 ± 0.9833 | 11.3645 ± 0.2659 | 0.0013 ± 0.0000 | 0.0007 ± 0.0001 | 20.9544 ± 0.8715 | 20.9996 ± 1.1273 | 22.5921 ± 0.0290 | 0.0003 ± 0.0000 | 0.0004 ± 0.0000 | Class II | insoluble | 12.70 ± 5.14 | 12.70% and 12.70 ± 5.14% | 5 | 2 | 2 |

— publication PMC11024192, “Dissolution and antioxidant potential of apigenin self nanoemulsifying drug delivery system (SNEDDS) for oral delivery” (Scientific Reports, 2024)
